Laboratory results published in US10870619B2 (CJ CHEILJEDANG CORPORATION, priority 2016, dated 2020).
Where two headings read alike, the source gives them in different places.

Details: crystals obtained by the crystallization process of the respective example (pH adjustment, coagulant, pH readjustment, cooling rate vary)
Description: As used herein, the term “bulk density” refers to the density measured based on the volume including voids generated between particles when powder is filled into a container. In particular, the density of powder which is measured after treating the powder by tapping a cylinder filled with the powder with a constant force so as to make the powder within the cylinder dense is called tapped bulk density (hereinafter, “BD”).

SMILES: CSCC[C@H](N)C(=O)O [Example 18, L-methionine]
- BD (tapped bulk density) of the obtained L-methionine crystals: 730 g/L
- BD (tapped bulk density) of the obtained L-methionine crystals (listed as Ex. 18): 730 g/L

SMILES: CSCC[C@H](N)C(=O)O [Example 1, L-methionine]
- BD (tapped bulk density) of the obtained L-methionine crystals: 370 g/L
- BD (tapped bulk density) of the obtained L-methionine crystals (listed as Ex. 1): 370 g/L

SMILES: CSCC[C@H](N)C(=O)O [Example 12, L-methionine]
- BD (tapped bulk density) of the obtained L-methionine crystals: 560 g/L
- BD (tapped bulk density) of the obtained L-methionine crystals (listed as Ex. 12): 560 g/L
